According to PubChem BioAssay AID248 (DTP/NCI, 2004):
Several values for one entry are separate records, joined by “and”; a condition that tells them apart may be missing. Equal entries are not always repeated. Toxic doses and inconclusive results are not listed. Rule as the data show it: active = T/C of 150% or more; inactive = T/C below 125%.

System: L1210 leukemia ip in BDF1 mice, survival T/C
Assay: NCI In Vivo Anticancer Drug Screen. Data for tumor model L1210 Leukemia (intraperitoneal) in B6D2F1 (BDF1) mice
Conditions: endpoint: mean survival time, higher = longer survival
In short: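 Each compound was tested against a transplantable tumor grown in mice. The endpoint was survival, with treated animals benchmarked against vehicle controls as a simple ratio.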

[1] = dose: 100.0 mg/kg/injection, schedule: Q01DX009 (ip), vehicle: Klucel (hydroxypropylcellulose) (HPC)
[2] = dose: 200.0 mg/kg/injection, schedule: Q01DX009 (ip), vehicle: Klucel (hydroxypropylcellulose) (HPC)
[3] = dose: 100.0 mg/kg/injection, schedule: Q04DX002 (ip), vehicle: Klucel (hydroxypropylcellulose) (HPC)
[4] = dose: 200.0 mg/kg/injection, schedule: Q04DX002 (ip), vehicle: Klucel (hydroxypropylcellulose) (HPC)
[5] = dose: 100.0 mg/kg/injection, schedule: Q04DX003 (ip), vehicle: saline with Tween-80
[6] = dose: 200.0 mg/kg/injection, schedule: Q04DX003 (ip), vehicle: saline with Tween-80
[7] = dose: 50.0 mg/kg/injection, schedule: Q04DX003 (ip), vehicle: Klucel (hydroxypropylcellulose) (HPC)
[8] = dose: 100.0 mg/kg/injection, schedule: Q04DX003 (ip), vehicle: Klucel (hydroxypropylcellulose) (HPC)
[9] = dose: 200.0 mg/kg/injection, schedule: Q04DX003 (ip), vehicle: Klucel (hydroxypropylcellulose) (HPC)
[10] = dose: 400.0 mg/kg/injection, schedule: Q04DX003 (ip), vehicle: Klucel (hydroxypropylcellulose) (HPC)
[11] = dose: 400.0 mg/kg/injection, schedule: Q04DX003 (ip), vehicle: saline with Tween-80
[12] = dose: 50.0 mg/kg/injection, schedule: Q01DX009 (ip), vehicle: saline with Tween-80
[13] = dose: 100.0 mg/kg/injection, schedule: Q01DX009 (ip), vehicle: saline with Tween-80
[14] = dose: 100.0 mg/kg/injection, schedule: Q01DX001 (ip), vehicle: saline
[15] = dose: 200.0 mg/kg/injection, schedule: Q01DX001 (ip), vehicle: saline
[16] = dose: 400.0 mg/kg/injection, schedule: Q01DX001 (ip), vehicle: saline
[17] = dose: 200.0 mg/kg/injection, schedule: Q01DX009 (ip), vehicle: saline with Tween-80

Measured: T/C

CC(=O)CCCCCCCCCCC1CCC2OC12 (centres undefined)
inactive: dose: 100.0 mg/kg/injection, schedule: Q01DX001 (ip), vehicle: other 101 % of control | dose: 100.0 mg/kg/injection, schedule: Q01DX009 (sc), vehicle: other 109 % of control | dose: 100.0 mg/kg/injection, schedule: Q04DX003 (ip), vehicle: other 95 % of control | dose: 200.0 mg/kg/injection, schedule: Q01DX001 (ip), vehicle: other 115 % of control | dose: 200.0 mg/kg/injection, schedule: Q01DX009 (sc), vehicle: other 98 % of control | dose: 200.0 mg/kg/injection, schedule: Q04DX003 (ip), vehicle: other 94 % of control | dose: 400.0 mg/kg/injection, schedule: Q01DX001 (ip), vehicle: other 106 % of control | dose: 400.0 mg/kg/injection, schedule: Q01DX009 (sc), vehicle: other 97 % of control | dose: 400.0 mg/kg/injection, schedule: Q04DX003 (ip), vehicle: other 102 % of control

CC1=CC(C)(C(Cl)(Cl)Cl)C(C)=C/C1=N/O (centres undefined)
inactive: [1] 99 % of control | [2] 89 % of control

Cc1nonc1C(N)=O
inactive: [3] 109 % of control | [4] 102 % of control | dose: 400.0 mg/kg/injection, schedule: Q04DX002 (ip), vehicle: Klucel (hydroxypropylcellulose) (HPC) 95 % of control

c1ccc2sc(SCSc3nc4ccccc4s3)nc2c1
inactive: dose: 50.0 mg/kg/injection, schedule: Q04DX003 (ip), vehicle: saline with Tween-80 93 % of control | [5] 90 % of control | [6] 100 % of control

[N-]=C(CC(=O)c1ccccc1)c1ccccc1.[N-]=C(CC(=O)c1ccccc1)c1ccccc1.[Ni+2]
inactive: dose: 12.5 mg/kg/injection, schedule: Q04DX003 (ip), vehicle: Klucel (hydroxypropylcellulose) (HPC) 90 % of control | dose: 25.0 mg/kg/injection, schedule: Q04DX003 (ip), vehicle: Klucel (hydroxypropylcellulose) (HPC) 93 % of control | [7] 91 % of control | [8] 90 % of control | [9] 93 % of control | [10] 90 % of control

[O-]c1on[n+](C2CCCCC2)c1-c1ccccc1
inactive: [5] 95 % of control | [6] 91 % of control | [11] 101 % of control

O=C(O)CCNC(=O)c1ccccc1
inactive: dose: 87.5 mg/kg/injection, schedule: Q04DX003 (ip), vehicle: saline 97 % of control | dose: 175.0 mg/kg/injection, schedule: Q04DX003 (ip), vehicle: saline 98 % of control | dose: 350.0 mg/kg/injection, schedule: Q04DX003 (ip), vehicle: saline 93 % of control

CCOC(=O)c1cnc(SC)nc1N(c1ccccc1)c1ccccc1
inactive: [8] 90 % of control | [9] 86 % of control | [10] 95 % of control

CCCCCCCCCCCCCCCCNC(=S)N/N=C/C(C)=N/NC(=S)NCCCCCCCCCCCCCCCC
inactive: dose: 15.0 mg/kg/injection, schedule: Q01DX Z (ip), vehicle: carboxymethylcellulose (CMC) 101 % of control | dose: 30.0 mg/kg/injection, schedule: Q01DX Z (ip), vehicle: carboxymethylcellulose (CMC) 107 % of control | dose: 60.0 mg/kg/injection, schedule: Q01DX Z (ip), vehicle: carboxymethylcellulose (CMC) 100 % of control and 104 % of control | dose: 120.0 mg/kg/injection, schedule: Q01DX Z (ip), vehicle: carboxymethylcellulose (CMC) 95 % of control and 98 % of control | dose: 240.0 mg/kg/injection, schedule: Q01DX Z (ip), vehicle: carboxymethylcellulose (CMC) 100 % of control

Nc1ccc2sc3ccccc3c2c1
inactive: [12] 106 % of control | [13] 105 % of control | [5] 95 % of control | [6] 104 % of control

O=[N+]([O-])c1ccc(C(Cl)S(=O)(=O)c2ccccc2)cc1 (centres undefined)
inactive: dose: 50.0 mg/kg/injection, schedule: Q01DX001 (ip), vehicle: saline 100 % of control | dose: 50.0 mg/kg/injection, schedule: Q01DX009 (ip), vehicle: Klucel (hydroxypropylcellulose) (HPC) 103 % of control | [7] 99 % of control | [14] 108 % of control | [1] 92 % of control | [3] 93 % of control and 100 % of control | [8] 111 % of control | dose: 119.0 mg/kg/injection, schedule: Q01DX001 (ip), vehicle: Klucel (hydroxypropylcellulose) (HPC) 105 % of control | dose: 178.0 mg/kg/injection, schedule: Q01DX001 (ip), vehicle: Klucel (hydroxypropylcellulose) (HPC) 100 % of control | [15] 97 % of control | [2] 97 % of control | [4] 100 % of control | [9] 107 % of control | dose: 266.0 mg/kg/injection, schedule: Q01DX001 (ip), vehicle: Klucel (hydroxypropylcellulose) (HPC) 100 % of control | dose: 400.0 mg/kg/injection, schedule: Q01DX001 (ip), vehicle: Klucel (hydroxypropylcellulose) (HPC) 97 % of control | [16] 95 % of control | dose: 400.0 mg/kg/injection, schedule: Q01DX009 (ip), vehicle: Klucel (hydroxypropylcellulose) (HPC) 92 % of control | [10] 101 % of control | dose: 600.0 mg/kg/injection, schedule: Q01DX001 (ip), vehicle: Klucel (hydroxypropylcellulose) (HPC) 94 % of control | dose: 600.0 mg/kg/injection, schedule: Q04DX002 (ip), vehicle: Klucel (hydroxypropylcellulose) (HPC) 100 % of control

COc1cc(N=O)c(C(=O)c2nccc3cc(OC)c(OC)cc23)cc1OC
inactive: [14] 104 % of control | [15] 91 % of control | [16] 94 % of control

CN(C)c1nn2c(-c3ccccc3)nnc2o1
inactive: dose: 100.0 mg/kg/injection, schedule: Q01DX009 (ip), vehicle: saline 94 % of control | dose: 200.0 mg/kg/injection, schedule: Q01DX009 (ip), vehicle: saline 102 % of control | dose: 400.0 mg/kg/injection, schedule: Q01DX009 (ip), vehicle: saline 100 % of control

O=C(CCl)Nc1ccc(Br)cc1
inactive: [13] 109 % of control | [17] 96 % of control

Cc1cc([N+](=O)[O-])ccc1N=O
inactive: dose: 12.5 mg/kg/injection, schedule: Q01DX009 (ip), vehicle: saline with Tween-80 101 % of control | dose: 25.0 mg/kg/injection, schedule: Q01DX009 (ip), vehicle: saline with Tween-80 102 % of control | [12] 98 % of control | [5] 98 % of control | [6] 100 % of control | [11] 100 % of control

CCOC(=O)c1ccc(NC(=O)Nc2cccc(O)c2)cc1
inactive: dose: 100.0 mg/kg/injection, schedule: Q01DX001 (ip), vehicle: saline with Tween-80 89 % of control | [13] 95 % of control | dose: 100.0 mg/kg/injection, schedule: Q04DX002 (ip), vehicle: saline with Tween-80 99 % of control and 110 % of control | [5] 95 % of control | dose: 200.0 mg/kg/injection, schedule: Q01DX001 (ip), vehicle: saline with Tween-80 98 % of control | [17] 99 % of control | dose: 200.0 mg/kg/injection, schedule: Q04DX002 (ip), vehicle: saline with Tween-80 99 % of control and 106 % of control | [6] 93 % of control | dose: 400.0 mg/kg/injection, schedule: Q01DX001 (ip), vehicle: saline with Tween-80 94 % of control | dose: 400.0 mg/kg/injection, schedule: Q01DX009 (ip), vehicle: saline with Tween-80 95 % of control | dose: 400.0 mg/kg/injection, schedule: Q04DX002 (ip), vehicle: saline with Tween-80 103 % of control and 104 % of control | [11] 94 % of control

CCN(CC)CCCC(C)Nc1cccc2c1C(=O)c1cccc(NC(C)CCCN(CC)CC)c1C2=O (centres undefined)
inactive: dose: 12.5 mg/kg/injection, schedule: Q01DX009 (ip), vehicle: saline 107 % of control | dose: 25.0 mg/kg/injection, schedule: Q01DX009 (ip), vehicle: saline 96 % of control and 118 % of control | dose: 25.0 mg/kg/injection, schedule: Q04DX002 (ip), vehicle: saline 98 % of control and 95 % of control | dose: 50.0 mg/kg/injection, schedule: Q04DX002 (ip), vehicle: saline 92 % of control and 98 % of control | dose: 100.0 mg/kg/injection, schedule: Q04DX002 (ip), vehicle: saline 102 % of control and 92 % of control

Cc1cc(C(=O)CC(C)C(=O)O)cc2c1sc1ccccc12 (centres undefined)
inactive: [14] 86 % of control | [15] 100 % of control
